Source: PubChem BioAssay (NCI)
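Protocol summary: plate cells (96-well), add compound at 5 concentrations, incubate 48 h, interpolate endpoints linearly. GI50: concentration for 50% inhibition of growth. TGI is the concentration that stops growth completely.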

Tests used:
Test in all cases: NCI anticancer screen, dose series, 48 h
[1] = test system: SF-268 CNS
[2] = test system: A549 NSCLC
[3] = test system: RXF 393 renal
[4] = test system: UO-31 renal
[5] = test system: RPMI-8226 leukemia
[6] = test system: ACHN renal
[7] = test system: SW-620 colon
[8] = test system: HL-60(TB) leukemia

Row | Compound | GI50 [1] [µM] | TGI [1] [µM] | GI50 [2] [µM] | TGI [2] [µM] | GI50 [3] [µM] | TGI [3] [µM] | GI50 [4] [µM] | TGI [4] [µM] | GI50 [5] [µM] | TGI [5] [µM] | GI50 [6] [µM] | TGI [6] [µM] | GI50 [7] [µM] | TGI [7] [µM] | GI50 [8] [µM] | TGI [8] [µM]
1 | CC(=O)Oc1ccc2c(c1)[C@@]1(C)CCCC(C)(C)[C@@H]1CC2 | 20.9 | 47.9 | 24.7 | 64.8 | 41.2 | 86.3 | 31.3 | 79.9 | 12.1 | 30.3 | 19.1 | 33.5 | 28.2 | > 100 | 34.7 | > 100
2 | O=C(Nc1cccc(-n2cc(-c3ccncc3)c(-c3ccc(O)c(Cl)c3)n2)c1)c1ccc2c(c1)OCCO2 | > 100 | > 100 | 5.85 | > 100 | 3.02 | > 100 | 4.03 | > 100 | 2.19 | > 100 | 7.38 | > 100 | > 100 | > 100 | 4.54 | > 100
3 | Cc1cc(C(=O)Nc2n[nH]c3ccccc23)n[nH]1 | > 100 | > 100 | > 100 | > 100 | > 100 | > 100 | 50.4 | > 100 | > 100 | > 100 | > 100 | > 100 | > 100 | > 100 | 75.2 | > 100
4 | COc1cccc(-c2nn(-c3ccccc3)cc2-c2ccnc(NCCCNC(=O)c3cccc(C(F)(F)F)c3)c2)c1 | 9.51 | 87.8 | 4.07 | 16.2 | 2.2 | 7.52 | 2.69 | 16.6 | 2.64 | 11.5 | 4.08 | 18.3 | 4.35 | 31.5 | 3.27 | 13.1
5 | N#Cc1cnc2cc(OC[C@@H](O)CO)c(NC(=O)C3CCCC3)cc2c1Nc1ccc(OCc2cccc(F)c2)c(Cl)c1 | 1.37 | 5.98 | 6.74 | 14.9 | 1.29 | 3.41 | 2.21 | > 50 | 0.728 | 3.12 | 3.01 | > 50 | 1.53 | 6.78 | 0.789 | 2.76
6 | CCCOc1cc2ccccc2cc1C(=O)Nc1nc(NC)c2c(ccc3nccc32)[nH]1 | 0.559 | 2.05 | 0.978 | 2.39 | 0.404 | 1.68 | 1.17 | 2.59 | 0.402 | 1.83 | 0.52 | 1.91 | 0.383 | 1.74 | 0.23 | 0.611
7 | C[C@]12CC[C@@H]3c4ccc(O)cc4CC[C@H]3[C@@H]1CC[C@@H]2NS(=O)(=O)c1ccc(Br)cc1 | 3.43 | 13.4 | 2.89 | 11.1 | 2.43 | 4.99 | 1.76 | 4.35 | 2.68 | 7.37 | 3.17 | 11.1 | 3.35 | 13.1 | 2.77 | 8.5
8 | O=C(O)c1cc2ccccc2c2c3c(ccc12)OCO3 | 188 | 580 | 197 | 621 | 146 | 342 | 116 | 484 | 139 | 738 | 221 | > 1000 | 245 | > 1000 | 172 | 440
9 | NCCCOc1cc2ccccc2cc1C(=O)Nc1ccc(Cl)cc1OC(=O)c1cc2ccccc2cc1OCCCN | 0.922 | 2.44 | – | – | 0.61 | 1.69 | 0.179 | 0.433 | – | – | 0.373 | 0.972 | 0.181 | 0.345 | 0.517 | 2.37
10 | Nc1nonc1-c1nc2ccccc2n1Cc1ccc(F)cc1 | 9.61 | > 100 | 5.69 | > 100 | 4.42 | > 100 | 5.72 | > 100 | – | – | 16 | > 100 | 3.54 | > 100 | – | –
11 | O=[N+]([O-])c1cccc(-c2nc(-c3ccc(Cl)cc3Cl)cn2-c2ccccc2)c1 | 1.14 | 5.5 | 0.787 | 1.92 | 0.823 | 2.08 | 1.19 | 7.29 | 0.00546 | 1.79 | 1.3 | 5.42 | 0.617 | 1.22 | > 33.3 | > 33.3
12 | O=S(=O)(NCCNc1nccc(-c2c(-c3ccc(F)c(O)c3)nc3sccn23)n1)c1ccc(Cl)cc1 | 1.8 | 13.4 | 1.69 | > 50 | 0.651 | 4.7 | 0.94 | > 50 | – | – | 1.4 | > 50 | > 50 | > 50 | – | –
13 | COc1ccc(C(C)c2cc(OC)c(OC)c(OC)c2)cc1 (configuration not stated) | 0.621 | > 50 | 0.189 | > 50 | 0.126 | > 50 | 0.409 | > 50 | 0.209 | > 50 | 0.341 | > 50 | 0.0581 | > 50 | 0.0979 | 0.374
14 | COc1cc(Cl)cc(-c2nn(-c3cccc(NC(=O)Nc4cccc(C(F)(F)F)c4)c3)cc2-c2ccncc2)c1 | 2.56 | 17.1 | 0.726 | 7.42 | 1.4 | 4.35 | 1.03 | 7.75 | 0.43 | 2.3 | 1.72 | 16.2 | 2.3 | 26.8 | 1.91 | 5.51
15 | CNCC/C=C1\c2cc3c(cc2-c2c1c1cc(OC)c(OC)cc1c(=O)n2C)OCO3 | 0.992 | 25.1 | 1.85 | 18.8 | 1.51 | 14.9 | 0.548 | > 100 | 0.149 | – | 0.167 | 2.21 | < 0.0142 | 16.4 | 0.239 | 2.57
